Assay results from the supplement of paper PMC8967900.

Tests used:
Experiment in all cases: selective drug sensitivity score (sDSS, relative to normal bone marrow) (sDSS (score)); higher = more potent and effective on the cell line relative to normal bone marrow cells
Details in all cases: 72 h
[1] = system: SUP-B15
[2] = system: JURKAT
[3] = system: ALL-PO
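Also: ALL cell lines in 384-well plates, five doses spanning 10,000-fold, each plate scaled between vehicle and 100 µmol/L benzalkonium chloride controls, sDSS an adapted area-under-curve metric.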

Row | SMILES | selective drug sensitivity score [1] | selective drug sensitivity score [2] | selective drug sensitivity score [3]
1 | O=c1sn(-c2cccc3ccccc23)c(=O)n1Cc1ccccc1 [Tideglusib] (top concentration 3000 nM) | -0.3 | -0.3 | -0.3
2 | COc1cc2nccc(Oc3ccc(NC(=O)Nc4cc(C)on4)c(Cl)c3)c2cc1OC [Tivozanib] (top concentration 10000 nM) | 21.7 | 0.96 | 1.76
3 | Cc1cc(Nc2cc(N3CCN(C)CC3)nc(Sc3ccc(NC(=O)C4CC4)cc3)n2)n[nH]1 [Tozasertib] (top concentration 10000 nM) | 19.1 | 1.76 | 17.3
4 | CC1=C(/C=C/C(C)=C/C=C/C(C)=C/C(=O)O)C(C)(C)CCC1 [Tretinoin] (top concentration 10000 nM) | -2.4 | -2.4 | -2.3
5 | COC(=O)c1ccc2c(c1)[nH]c1ncnc(NCCCN3CCCCC3)c12 [UM729] (top concentration 10000 nM) | 2.24 | -0.06 | 2.54
6 | COc1cc2c(NC3CCN(C(C)C)CC3)nc(N3CCC(F)(F)CC3)nc2cc1OCCCN1CCCC1 [UNC0642] (top concentration 10000 nM) | 3.36 | -3.64 | 2.96
7 | O=C(c1ccc(C(=O)N2CCC(N3CCCC3)CC2)c(Nc2ccccc2)c1)N1CCC(N2CCCC2)CC1 [UNC1215] (top concentration 10000 nM) | 0 | 0 | 0
8 | CCCC(CCC)C(=O)O [Valproic_acid] (top concentration 1000000 nM) | 0 | 0 | 0
9 | Clc1ccc(Nc2nnc(Cc3ccncc3)c3ccccc23)cc1 [Vatalanib] (top concentration 10000 nM) | 0 | 0 | 0
10 | CCCS(=O)(=O)Nc1ccc(F)c(C(=O)c2c[nH]c3ncc(-c4ccc(Cl)cc4)cc23)c1F [Vemurafenib] (top concentration 10000 nM) | 2.26 | 2.26 | 2.46
11 | CC[C@]1(O)C[C@H]2CN(CCc3c([nH]c4ccccc34)[C@@](C(=O)OC)(c3cc4c(cc3OC)N(C)[C@H]3[C@@](O)(C(=O)OC)[C@H](OC(C)=O)[C@]5(CC)C=CCN6CC[C@]43[C@@H]65)C2)C1 [Vinblastine] (top concentration 1000 nM) | 12.9 | 0.5 | 7.2
12 | CC[C@]1(O)C[C@H]2CN(CCc3c([nH]c4ccccc34)[C@@](C(=O)OC)(c3cc4c(cc3OC)N(C=O)[C@H]3[C@@](O)(C(=O)OC)[C@H](OC(C)=O)[C@]5(CC)C=CCN6CC[C@]43[C@@H]65)C2)C1 [Vincristine] (top concentration 1000 nM) | 18.5 | 4.52 | 8.32
13 | FC(F)c1nc2ccccc2n1-c1nc(N2CCOCC2)nc(N2CCOCC2)n1 [ZSTK474] (top concentration 10000 nM) | 2.56 | 1.76 | 10.5
